Test results as given in EP1785423A1, “Pyridopyrazine derivatives and their use as kinase modulators” (Zentaris GmbH, priority 2005, dated 2007).

Legend:
Erk2 = target: T1, Erk2; experiment: Cell-free kinase assay Erk2-ALPHA (ALPHA technology); format: biochemical, human; settings: 10µM ATP
T1 construct: teils als Volllängenkinasen, teils als verkürzte Fragmente - mindestens aber bestehend aus der funktionellen Kinasedomäne; purchased Upstate 14-173
Description: (§1) Die inhibitorische Wirkung der erfindungsgemäßen Verbindungen wurde an diversen humanen Serin/ Threonin-, Tyrosin- und Lipidkinasen in enzymatischen Assays getestet. Dabei wurden rekombinante humane Kinasen wie z.B. Erk2, Pl3Kalpha, - beta, -gamma, -delta, p38alpha, p38gamma, Jnk1, Jnk2 und andere eingesetzt, teils als Volllängenkinasen, teils als verkürzte Fragmente - mindestens aber bestehend aus der funktionellen Kinasedomäne. Die käuflichen Kinaseproteine (Proqinase, Upstate) wurden als rekombinante Fusionsproteine mit GST-(Glutathion-S-Transferase) oder His-Tag eingesetzt. Je nach Substrattyp wurden die verschiedenen Kinasereaktionen mittels geeigneter ALPHA™-beads (PerkinElmer) quantifiziert.
(§2) Nachfolgend wird die Substanztestung am Erk-Assay genauer beschrieben. Ausgewählte Testergebnisse der Erk2-, PI3Kalpha-Assays sind unten aufgeführt. […] Anschließend wurde die Kinasereaktion durch Zugabe von 10µl des mit anti-phospho MBP-Antikörpers (320pM, #05-429/ Upstate) präinkubierten ALPHA-Beadmixes (10µg/ml, #6760617/ PerkinElmer) in 25mM Tris, 200mM NaCl, 100mM EDTA und 0.3% BSA abgestoppt und über Nacht stehen gelassen. • b) PI3K-ALPHAs (z.B. PI3Kalpha): Die Testsubstanz, 1ng PI3Kalpha (#14-602, Upstate), 100µM ATP und 20µM PIP2-Substrat (#P4508, Echelon) auf einer 384er Optiplate (PerkinElmer) für 1h in 50mM Hepes, 50mM NaCl, 5mM MgCl2, 0.05% Chaps, 5mM DTT bei pH 7.4 inkubiert. Anschließend wurde die Kinasereaktion durch Zugabe des mit 1nM GST:Grp1-Fusionsprotein (Upstate) und 15nM biotinyliertem PIP3 (#C-39B6/ Echelon) präinkubierten ALPHA-Beadmixes (10µg/ml, #6760603/ PerkinElmer) in 50mM Hepes, 50mM NaCl, 50mM EDTA und 0.1% BSA abgestoppt und über Nacht stehen gelassen.
(§3) Die Fluoreszenzdetektion erfolgte am nächsten Morgen in einem Fusion™alpha-Gerät (PerkinElmer).
(§4) Die Berechnung der %-Inhibitionswerte je Substanz-Konzentration geschah mittels folgender Formel aus den im Fusion™alpha ermittelten Rohdaten: % Kinase Inhibition(Probe) = 100-(100×(MittelwertProbe -Mittelwert0% Kontrolle)/(Mittelwert100% Kontrolle -Mittelwert0% Kontrolle)) [formula]
(§5) Die Kontrollen wurden jeweils 8fach, die Substanzproben jeweils 2fach bestimmt. Die 0%-Kontrolle enthielt entweder kein ATP oder kein Substrat, die 100%-Kontrolle enthielt keine Testsubstanz. Die IC50-Werte wurden mit GraphPadPrism ermittelt.

PI3Kalpha = target: T2, PI3Kalpha (Homo sapiens, UniProt P42336); experiment: Cell-free kinase assay PI3K-ALPHA (ALPHA technology); format: biochemical; settings: 100µM ATP
T2 construct: teils als Volllängenkinasen, teils als verkürzte Fragmente - mindestens aber bestehend aus der funktionellen Kinasedomäne; purchased Upstate 14-602
Description: as §1, §2, §3, §4, §5

BxPC3 = experiment: Cellular anti-proliferative XTT assay; format: cell-based; settings: Homo sapiens, BXPC-3, 45h incubation
Description: (§6) Das Prinzip dieses Testes beruht auf der intrazellulären Reduktion des Tetrazolium-Farbstoffes XTT (Natrium 3'-[1-(phenylaminocarbonyl)-3,4-tetrazolium]-bis(4-methoxy-6-nitro)benzensulfonsäure, Sigma) zu einem Formazan-Farbstoff durch mitochondriale Dehydrogenasen. Der Farbstoff wird nur von stoffwechselaktiven Zellen gebildet, seine photometrisch messbare Intensität ist ein quantitativer Indikator für das Vorhandensein lebender Zellen. Die Reduzierung der Farbstoffbildung durch Inkubation der Zellen mit Substanzen dient als Parameter für die anti-proliferative Wirkung.
(§7) Die Tumorzelllinien (ATCC) wurden in 96er Mikrotiterplatten in definierter Zellzahl (5000 Zellen/ Well für BxPC3 und Hct116; 10000 Zellen/ Well für MDA MB468) eingesäat und anschließend über Nacht im Brutschrank bei 37°C, 5% CO2 und 95% Luftfeuchtigkeit inkubiert. Die Testsubstanzen wurden als Stammlösungen (10 mM) in DMSO angesetzt. […] Die Zellplatten wurden dann für 45h im Brutschrank bei 37°C, 5% CO2 und 95% Luftfeuchtigkeit inkubiert.
(§8) Für die Detektionssreaktion wurde das Substrat XTT mit PMS (N-Methyl Dibenzopyrazine Methylsulfat, Sigma) versetzt und zu den Zellen gegeben, sodass eine finale Konzentration von 325µg XTT/ml und 2.5µg PMS/ml resultierte. Es wurde dann für 3h bei 37°C, 95% Luftfeuchte inkubiert. Anschließend konnte das durch zelluläre Dehydrogenasen gebildete Formazan Salz bei einer Adsorption bei 490nm quantifiziert werden.
(§9) Die Auswertung der %-Inhibitions-Werte geschah mittels folgender Formel aus den Werten für die jeweils gemessenen optischen Dichten bei 490nm: % Inhibition Zellproliferation(Probe) = 100-(100×(MittelwertProbe -Mittelwert0% Kontrolle)/(Mittelwert100% Kontrolle -Mittelwert0% Kontrolle)) [formula]
(§10) Die Kontrollen wurden jeweils 8fach, die Substanzproben jeweils 2fach bestimmt. Die 0%-Kontrolle enthielt keine Zellen, die 100%-Kontrolle enthielt keine Testsubstanz. Die EC50-Werte wurden mit GraphPadPrism ermittelt.

Hct116 = experiment: Cellular anti-proliferative XTT assay; format: cell-based; settings: Homo sapiens, HCT-116, 45h incubation
Description: as §6, §7, §8, §9, §10

MDA-MB468 = experiment: Cellular anti-proliferative XTT assay; format: cell-based; settings: Homo sapiens, MDA-MB-468, 45h incubation
Description: as §6, §7, §8, §9, §10

T2 sequence (P42336 whole entry, the tested form may be a part): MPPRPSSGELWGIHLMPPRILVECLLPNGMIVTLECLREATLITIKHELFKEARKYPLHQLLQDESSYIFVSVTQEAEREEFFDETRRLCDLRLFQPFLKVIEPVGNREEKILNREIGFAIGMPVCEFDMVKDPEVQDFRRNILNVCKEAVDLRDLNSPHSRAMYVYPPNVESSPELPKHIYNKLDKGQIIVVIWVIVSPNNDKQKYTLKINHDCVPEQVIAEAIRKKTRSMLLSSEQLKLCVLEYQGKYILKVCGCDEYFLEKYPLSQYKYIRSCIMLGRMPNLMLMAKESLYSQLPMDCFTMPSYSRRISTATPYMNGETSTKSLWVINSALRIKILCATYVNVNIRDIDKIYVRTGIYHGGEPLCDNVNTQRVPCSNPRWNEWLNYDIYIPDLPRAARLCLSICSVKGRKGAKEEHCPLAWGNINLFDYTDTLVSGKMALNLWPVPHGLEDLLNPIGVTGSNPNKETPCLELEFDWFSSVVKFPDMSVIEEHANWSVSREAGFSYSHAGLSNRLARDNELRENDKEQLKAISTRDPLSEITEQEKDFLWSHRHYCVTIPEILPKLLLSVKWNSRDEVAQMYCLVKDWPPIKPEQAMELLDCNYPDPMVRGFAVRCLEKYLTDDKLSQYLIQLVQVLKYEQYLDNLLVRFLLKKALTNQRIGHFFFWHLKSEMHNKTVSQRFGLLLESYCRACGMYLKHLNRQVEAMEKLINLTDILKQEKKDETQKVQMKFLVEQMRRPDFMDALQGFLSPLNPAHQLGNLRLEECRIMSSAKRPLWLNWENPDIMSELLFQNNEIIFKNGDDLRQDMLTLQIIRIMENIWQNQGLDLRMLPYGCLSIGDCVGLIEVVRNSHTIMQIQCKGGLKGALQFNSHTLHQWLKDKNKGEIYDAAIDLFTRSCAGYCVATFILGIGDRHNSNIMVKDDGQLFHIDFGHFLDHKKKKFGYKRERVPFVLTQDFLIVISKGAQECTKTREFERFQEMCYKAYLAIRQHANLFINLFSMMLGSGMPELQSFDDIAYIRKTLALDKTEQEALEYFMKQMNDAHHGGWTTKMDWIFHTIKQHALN
T2 sequence (P27986 whole entry partner, the tested form may be a part): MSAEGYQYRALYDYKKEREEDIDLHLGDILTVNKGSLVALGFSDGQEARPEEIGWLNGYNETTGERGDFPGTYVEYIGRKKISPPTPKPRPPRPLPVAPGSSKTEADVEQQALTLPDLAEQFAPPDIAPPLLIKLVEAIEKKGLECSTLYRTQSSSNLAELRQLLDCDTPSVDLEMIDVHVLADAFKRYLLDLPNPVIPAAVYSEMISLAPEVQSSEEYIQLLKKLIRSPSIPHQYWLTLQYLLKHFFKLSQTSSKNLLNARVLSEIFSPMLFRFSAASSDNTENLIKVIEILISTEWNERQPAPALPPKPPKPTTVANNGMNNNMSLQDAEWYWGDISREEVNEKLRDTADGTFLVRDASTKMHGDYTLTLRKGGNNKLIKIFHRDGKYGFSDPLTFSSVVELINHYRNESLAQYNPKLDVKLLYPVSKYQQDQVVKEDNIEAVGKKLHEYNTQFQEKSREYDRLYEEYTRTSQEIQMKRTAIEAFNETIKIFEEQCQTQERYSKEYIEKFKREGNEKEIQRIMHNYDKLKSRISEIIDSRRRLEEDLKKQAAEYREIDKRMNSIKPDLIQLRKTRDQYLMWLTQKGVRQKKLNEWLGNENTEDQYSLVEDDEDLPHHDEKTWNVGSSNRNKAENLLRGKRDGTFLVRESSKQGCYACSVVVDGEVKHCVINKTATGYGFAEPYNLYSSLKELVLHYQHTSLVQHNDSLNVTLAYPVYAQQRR
T1 sequence (P63085 2-358 limits assumed): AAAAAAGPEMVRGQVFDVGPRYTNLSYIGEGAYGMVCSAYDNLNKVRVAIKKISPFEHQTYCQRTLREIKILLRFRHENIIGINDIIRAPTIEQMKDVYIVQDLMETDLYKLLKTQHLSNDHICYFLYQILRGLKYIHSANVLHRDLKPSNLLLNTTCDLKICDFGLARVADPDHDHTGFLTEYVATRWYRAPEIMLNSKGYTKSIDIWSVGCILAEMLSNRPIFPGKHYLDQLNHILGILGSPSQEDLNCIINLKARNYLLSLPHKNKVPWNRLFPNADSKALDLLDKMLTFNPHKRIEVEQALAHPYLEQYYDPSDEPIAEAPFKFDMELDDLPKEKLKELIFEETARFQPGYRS

Row | Compound | IC50 (Erk2) [µM] | IC50 (PI3Kalpha) [µM] | EC50 (BxPC3) [µM] | EC50 (Hct116) [µM] | EC50 (MDA-MB468) [µM]
1 | CCNC(=O)Nc1ccc2ncc(-c3ccc(OC(=O)N(CC)CC)cc3)nc2n1 [Beispiel 12, Diethyl-carbaminsäure-4-[6-(3-ethyl-harnstoff)-pyrido[2,3-b]pyrazin-3-yl]-phenyl-ester] | 2.8 | 3.4 | – | – | –
2 | C=CCONC(=O)Nc1ccc2ncc(-c3ccccc3)nc2n1 [Beispiel 8, 1-Allyloxy-3-(3-phenyl-pyrido[2,3-b]pyrazin-6-yl)-harnstoff] | 4.1 | 27.2 | – | – | –
3 | CCNC(=O)Nc1ccc2ncc(-c3ccc(OC(=O)OC)cc3)nc2n1 [Beispiel 9, Kohlensäure-4-[6-(3-ethyl-harnstoff)-pyrido[2,3-b]pyrazin-3-yl]-phenyl-methyl-ester] | 0.117 | 7.8 | 20 | 10 | 15
4 | CCNC(=O)Nc1ccc2ncc(C#CC3CC3)nc2n1 [Beispiel 3, 1-(3-Cyclopropylethynyl-pyrido[2,3-b]pyrazin-6-yl)-3-ethyl-harnstoff] | 5.8 | 16.8 | – | – | –

More lines, now with the values ahead:

Row | IC50 (Erk2) [µM] | IC50 (PI3Kalpha) [µM] | EC50 (BxPC3) [µM] | EC50 (Hct116) [µM] | EC50 (MDA-MB468) [µM] | Compound
5 | – | > 31.6 | – | – | – | CCNC(=O)Nc1ccc2ncc(-c3ccc(OC(=O)C=Cc4ccccc4)cc3)nc2n1 [Beispiel 13, (E)-3-Phenyl-acrylsäure-4-[6-(3-ethyl-harnstoff)-pyrido[2,3-b]pyrazin-3-yl]-phenyl-ester]
6 | – | 21.3 | – | – | – | CCNC(=O)Nc1ccc2ncc(C=CCOC)nc2n1 [Beispiel 6, 1-Ethyl-3-[3-((E)-3-methoxy-propenyl)-pyrido[2,3-b]pyrazin-6-yl]-harnstoff]
7 | 0.088 | 2.6 | 9 | 5 | 7 | CCNC(=O)Nc1ccc2ncc(-c3ccc(OC(=O)OCCOC)cc3)nc2n1 [Beispiel 10, Kohlensäure-4-[6-(3-ethyl-harnstoff)-pyrido[2,3-b]pyrazin-3-yl]-phenyl-(2-methoxy-ethyl)-ester]
8 | 0.27 | > 31.6 | – | – | – | CCNC(=O)Nc1ccc2ncc(-c3ccc(OC(=O)Oc4ccccc4)cc3)nc2n1 [Beispiel 11, Kohlensäure-4-[6-(3-ethyl-harnstoff)-pyrido[2,3-b]pyrazin-3-yl]-phenyl-phenyl-ester]
9 | 0.407 | 27.9 | – | – | – | CONC(=O)Nc1ccc2ncc(-c3ccccc3)nc2n1 [Beispiel 7, 1-Methoxy-3-(3-phenyl-pyrido[2,3-b]pyrazin-6-yl)-harnstoff]
